Assay results reported in ChEMBL document CHEMBL1201861, “Genomics of Drug Sensitity in Cancer screening data, Wellcome Trust Sanger Institute”.

Columns and labels:
Test in all cases: cells
Details in all cases: Homo sapiens
MHH-PREB-1 = type: functional, cell-based;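 also: cell viability assay measuring inhibition of proliferation of human MHH-PREB-1 cells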
Description: SANGER: Inhibition of human MHH-PREB-1 cell growth in a cell viability assay.

HCC2218 = type: functional, cell-based;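 also: cell viability assay read-out, with IC50 given as the concentration that inhibits growth of the cell line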
Description: SANGER: Inhibition of human HCC2218 cell growth in a cell viability assay.

D-502MG = type: functional, cell-based
Description: SANGER: Inhibition of human D-502MG cell growth in a cell viability assay.

SK-MEL-2 = type: functional, cell-based;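 also: growth inhibition of human SK-MEL-2 cells measured with a cell viability assay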
Description: SANGER: Inhibition of human SK-MEL-2 cell growth in a cell viability assay.

HDLM-2 = type: functional, cell-based;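 also: cell viability assay measuring suppression of HDLM-2 proliferation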
Description: SANGER: Inhibition of human HDLM-2 cell growth in a cell viability assay.

RXF 393 = type: functional, cell-based;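 also: growth inhibition of human RXF 393 cells, read out with a cell viability assay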
Description: SANGER: Inhibition of human RXF393 cell growth in a cell viability assay.

NB13 = type: functional, cell-based;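 also: cell viability readout measuring growth inhibition of human NB13 cells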
Description: SANGER: Inhibition of human NB13 cell growth in a cell viability assay.

NB5 = type: functional, cell-based;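 also: growth inhibition of NB5 cells, read out as cell viability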
Description: SANGER: Inhibition of human NB5 cell growth in a cell viability assay.

Calu-6 = type: functional, cell-based;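 also: growth of human Calu-6 cells, read out by a cell viability assay, IC50 marking inhibition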
Description: SANGER: Inhibition of human Calu-6 cell growth in a cell viability assay.

NCI-H2126 = type: functional, cell-based;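 also: growth inhibition of the cancer cell line, determined with a cell viability readout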
Description: SANGER: Inhibition of human NCI-H2126 cell growth in a cell viability assay.

A3-KAW = type: functional, cell-based;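 also: growth inhibition of human A3-KAW cells, read out with a cell viability assay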
Description: SANGER: Inhibition of human A3-KAW cell growth in a cell viability assay.

MV4-11 = type: functional, cell-based, MV-4-11;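 also: cell viability readout measuring growth inhibition of human MV-4-11 cells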
Description: SANGER: Inhibition of human MV-4-11 cell growth in a cell viability assay.

MZ7-mel = type: functional, cell-based;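 also: growth inhibition of human MZ7-mel cells, measured by a cell viability assay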
Description: SANGER: Inhibition of human MZ7-mel cell growth in a cell viability assay.

NCI-H747 = type: functional, cell-based;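 also: growth inhibition of human NCI-H747 cells, read out by a cell viability assay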
Description: SANGER: Inhibition of human NCI-H747 cell growth in a cell viability assay.

HCC1187 = type: functional, cell-based;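 also: growth inhibition of HCC1187 cells, read out with a cell viability assay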
Description: SANGER: Inhibition of human HCC1187 cell growth in a cell viability assay.

EW-24 = type: functional, cell-based;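 also: human EW-24 cancer cell line, growth inhibition read out via a cell viability assay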
Description: SANGER: Inhibition of human EW-24 cell growth in a cell viability assay.

IA-LM = type: functional, cell-based;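 also: cell viability assay measuring growth inhibition of human IA-LM cells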
Description: SANGER: Inhibition of human IA-LM cell growth in a cell viability assay.

Becker = type: functional, cell-based;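 also: growth inhibition of Becker cells, read out with a cell viability assay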
Description: SANGER: Inhibition of human Becker cell growth in a cell viability assay.

MC116 = type: functional, cell-based;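 also: growth inhibition of MC116 cells, read out with a cell viability assay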
Description: SANGER: Inhibition of human MC116 cell growth in a cell viability assay.

MS-1 = type: functional, cell-based
Description: SANGER: Inhibition of human MS-1 cell growth in a cell viability assay.

TE-12 = type: functional, cell-based;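 also: growth inhibition of TE-12 cells, read out by a cell viability assay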
Description: SANGER: Inhibition of human TE-12 cell growth in a cell viability assay.

IST-MEL1 = type: functional, cell-based;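 also: growth inhibition of the cell line, read out with a cell viability assay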
Description: SANGER: Inhibition of human IST-MEL1 cell growth in a cell viability assay.

A704 = type: functional, cell-based;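 also: growth inhibition of human A704 cells, read out with a cell viability assay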
Description: SANGER: Inhibition of human A704 cell growth in a cell viability assay.

DMS-114 = type: functional, cell-based
KP-N-YS = type: functional, cell-based;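 also: cell viability assay measuring inhibition of cell line growth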
Description: SANGER: Inhibition of human KP-N-YS cell growth in a cell viability assay.

JVM-3 = type: functional, cell-based;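 also: growth inhibition of human JVM-3 cells, read out with a cell viability assay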
Description: SANGER: Inhibition of human JVM-3 cell growth in a cell viability assay.

TE-11 = type: functional, cell-based;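 also: growth inhibition of human TE-11 cells, read out by a cell viability assay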
Description: SANGER: Inhibition of human TE-11 cell growth in a cell viability assay.

MLMA = type: functional, cell-based;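 also: growth inhibition of MLMA cells (human), determined through a cell viability readout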
Description: SANGER: Inhibition of human MLMA cell growth in a cell viability assay.

LU-139 = type: functional, cell-based
Description: SANGER: Inhibition of human LU-139 cell growth in a cell viability assay.

ES6 = type: functional, cell-based;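 also: growth inhibition of human ES6 cells, read out with a cell viability assay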
Description: SANGER: Inhibition of human ES6 cell growth in a cell viability assay.

PSN1 = type: functional, cell-based;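 also: suppression of growth of human PSN1 cells, read out by a cell viability assay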
Description: SANGER: Inhibition of human PSN1 cell growth in a cell viability assay.

A388 = type: functional, cell-based;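 also: growth inhibition of human A388 cells, read out with a cell viability assay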
Description: SANGER: Inhibition of human A388 cell growth in a cell viability assay.

DEL = type: functional, cell-based;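 also: growth inhibition of the human DEL cell line, read out with a cell viability assay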
Description: SANGER: Inhibition of human DEL cell growth in a cell viability assay.

HC-1 = type: functional, cell-based;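 also: growth inhibition of HC-1 cells measured by a cell viability assay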
Description: SANGER: Inhibition of human HC-1 cell growth in a cell viability assay.

ES8 = type: functional, cell-based;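 also: growth inhibition of human ES8 cells, read out with a cell viability assay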
Description: SANGER: Inhibition of human ES8 cell growth in a cell viability assay.

NCI-H1770 = type: functional, cell-based;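 also: growth inhibition of NCI-H1770 cells determined with a viability readout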
Description: SANGER: Inhibition of human NCI-H1770 cell growth in a cell viability assay.

ES7 = type: functional, cell-based;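 also: growth inhibition of cultured human ES7 cells, read out as cell viability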
Description: SANGER: Inhibition of human ES7 cell growth in a cell viability assay.

ES3 = type: functional, cell-based;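 also: growth inhibition of ES3 cells, read out with a cell viability assay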
Description: SANGER: Inhibition of human ES3 cell growth in a cell viability assay.

SF-126 = type: functional, cell-based;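 also: growth inhibition of human SF126 cells, read out with a cell viability assay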
Description: SANGER: Inhibition of human SF126 cell growth in a cell viability assay.

GCIY = type: functional, cell-based;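 also: growth inhibition of the human GCIY cell line, read out by a cell viability assay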
Description: SANGER: Inhibition of human GCIY cell growth in a cell viability assay.

LAMA-84 = type: functional, cell-based;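 also: growth inhibition of LAMA-84 cells, read out with a cell viability assay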
Description: SANGER: Inhibition of human LAMA-84 cell growth in a cell viability assay.

ES4 = type: functional, cell-based;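 also: growth inhibition of human ES4 cells, read out by a cell viability assay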
Description: SANGER: Inhibition of human ES4 cell growth in a cell viability assay.

MZ1-PC = type: functional, cell-based;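 also: cell viability assay measuring growth inhibition of human MZ1-PC cells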
Description: SANGER: Inhibition of human MZ1-PC cell growth in a cell viability assay.

HEL = type: functional, cell-based;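 also: growth inhibition of HEL cells, read out with a cell viability assay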
Description: SANGER: Inhibition of human HEL cell growth in a cell viability assay.

NCI-H720 = type: functional, cell-based;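 also: growth inhibition of human NCI-H720 cells determined by a cell viability assay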
Description: SANGER: Inhibition of human NCI-H720 cell growth in a cell viability assay.

DJM-1 = type: functional, cell-based;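 also: growth inhibition of human DJM-1 cells, read out by a cell viability assay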
Description: SANGER: Inhibition of human DJM-1 cell growth in a cell viability assay.

KGN = type: functional, cell-based;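 also: growth inhibition of KGN cells, read out with a cell viability assay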
Description: SANGER: Inhibition of human KGN cell growth in a cell viability assay.

no-10 = type: functional, cell-based;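 also: growth inhibition of no-10 cells, read out with a cell viability assay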
Description: SANGER: Inhibition of human no-10 cell growth in a cell viability assay.

NCI-H82 = type: functional, cell-based;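 also: growth inhibition of NCI-H82 cells, measured with a cell viability readout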
Description: SANGER: Inhibition of human NCI-H82 cell growth in a cell viability assay.

NCI-H1299 = type: functional, cell-based;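 also: growth inhibition of human NCI-H1299 cells, read out by a cell viability assay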
Description: SANGER: Inhibition of human NCI-H1299 cell growth in a cell viability assay.

NCI-H23 = type: functional, cell-based;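 also: cell viability assay measuring growth inhibition of NCI-H23 cells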
Description: SANGER: Inhibition of human NCI-H23 cell growth in a cell viability assay.

BB65-RCC = type: functional, cell-based;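 also: growth inhibition of the cell line, measured with a cell viability assay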
Description: SANGER: Inhibition of human BB65-RCC cell growth in a cell viability assay.

TK-10 = type: functional, cell-based;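 also: growth inhibition of TK-10 cells, read out in a cell viability assay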
Description: SANGER: Inhibition of human TK10 cell growth in a cell viability assay.

NCI-H446 = type: functional, cell-based
Description: SANGER: Inhibition of human NCI-H446 cell growth in a cell viability assay.

GT3TKB = type: functional, cell-based
Description: SANGER: Inhibition of human GT3TKB cell growth in a cell viability assay.

SNU1 = type: functional, cell-based
Description: SANGER: Inhibition of human NCI-SNU-1 cell growth in a cell viability assay.

NB69 = type: functional, cell-based
Description: SANGER: Inhibition of human NB69 cell growth in a cell viability assay.

EM-2 = type: functional, cell-based
Description: SANGER: Inhibition of human EM-2 cell growth in a cell viability assay.

RCC10RGB = type: functional, cell-based
Description: SANGER: Inhibition of human RCC10RGB cell growth in a cell viability assay.

L-363 = type: functional, cell-based
Description: SANGER: Inhibition of human L-363 cell growth in a cell viability assay.

HOP-62 = type: functional, cell-based
Description: SANGER: Inhibition of human HOP-62 cell growth in a cell viability assay.

SBC-1 = type: functional, cell-based
Description: SANGER: Inhibition of human SBC-1 cell growth in a cell viability assay.

SK-N-DZ = type: functional, cell-based
Description: SANGER: Inhibition of human SK-N-DZ cell growth in a cell viability assay.

C8166 = type: functional, cell-based
Description: SANGER: Inhibition of human C8166 cell growth in a cell viability assay.

NOS-1 = type: functional, cell-based
Description: SANGER: Inhibition of human NOS-1 cell growth in a cell viability assay.

RPMI-8866 = type: functional, cell-based
Description: SANGER: Inhibition of human RPMI-8866 cell growth in a cell viability assay.

CC(C)=CC[C@@H](O)C1=CC(=O)c2c(O)ccc(O)c2C1=O [SHIKONIN]
IC50 (MHH-PREB-1): 0.252 µM | IC50 (HCC2218): 0.496 µM | IC50 (D-502MG): 4.37 µM | IC50 (SK-MEL-2): 6.33 µM | IC50 (HDLM-2): > 16 µM | IC50 (RXF 393): 0.749 µM | IC50 (NB13): 0.317 µM | IC50 (NB5): 2.43 µM | IC50 (Calu-6): 15.7 µM | IC50 (NCI-H2126): 15.6 µM | IC50 (A3-KAW): 2.14 µM | IC50 (MV4-11): 0.274 µM | IC50 (MZ7-mel): 0.114 µM | IC50 (NCI-H747): 0.441 µM | IC50 (HCC1187): 1.02 µM | IC50 (EW-24): 14.6 µM | IC50 (IA-LM): 2.08 µM | IC50 (Becker): 1.58 µM | IC50 (MC116): 1.79 µM | IC50 (MS-1): 1.77 µM | IC50 (TE-12): 2.34 µM | IC50 (IST-MEL1): 15 µM | IC50 (A704): 2.7 µM | IC50 (DMS-114): > 16 µM | IC50 (KP-N-YS): 0.352 µM | IC50 (JVM-3): > 16 µM | IC50 (TE-11): 4.01 µM | IC50 (MLMA): 0.539 µM | IC50 (LU-139): 6.26 µM | IC50 (ES6): 7.88 µM | IC50 (PSN1): > 16 µM | IC50 (A388): 0.867 µM | IC50 (DEL): 0.154 µM | IC50 (HC-1): > 16 µM | IC50 (ES8): 0.778 µM | IC50 (NCI-H1770): 0.243 µM | IC50 (ES7): 0.548 µM | IC50 (ES3): 0.656 µM | IC50 (SF-126): 0.773 µM | IC50 (GCIY): 0.036 µM | IC50 (LAMA-84): 1.21 µM | IC50 (ES4): 4.63 µM | IC50 (MZ1-PC): 0.0193 µM | IC50 (HEL): 2.04 µM | IC50 (NCI-H720): > 16 µM | IC50 (DJM-1): 6.39 µM | IC50 (KGN): 1.31 µM | IC50 (no-10): 0.29 µM | IC50 (NCI-H82): > 16 µM | IC50 (NCI-H1299): 1.07 µM | IC50 (NCI-H23): > 16 µM | IC50 (BB65-RCC): 0.695 µM | IC50 (TK-10): 1.22 µM | IC50 (NCI-H446): > 16 µM | IC50 (GT3TKB): 0.346 µM | IC50 (SNU1): 1.6 µM | IC50 (NB69): 0.213 µM | IC50 (EM-2): 0.977 µM | IC50 (RCC10RGB): 1.56 µM | IC50 (L-363): > 16 µM | IC50 (HOP-62): 1.16 µM | IC50 (SBC-1): 12.1 µM | IC50 (SK-N-DZ): 1.8 µM | IC50 (C8166): 0.408 µM | IC50 (NOS-1): > 16 µM | IC50 (RPMI-8866): 0.536 µM
